The text below walks through data of patent US12220463B2, “Quaternary ammonium cyclodextrin and preparation method and uses thereof, and silver nanoparticle-cyclodextrin complex and preparation method and uses thereof” (Hubei University of Chinese Medicine, priority 2022, dated 2025).

Data set [1] deals with Escherichia coli (E. coli). Kind of data set: Inhibition zone assay of bacteriostatic activity (GB/T 39101-2020, punching method). It counts as cell-based. The settings on record: FIG. 19, repeated three times. Here is the method: Preparation of a silver nanoparticle sample for control: 0.1 mol/L AgCl was dissolved in 16 mL of an ammonia solution at a mass concentration of 25% with continuous stirring, and an aqueous solution of 0.1 mol/L vitamin C was added dropwise. […] The solution was then filtered, and the precipitate was washed repeatedly with double-distilled water, dispersed in double-distilled water, and freeze-dried for 24 h to afford silver nanoparticles prepared from vitamin C.
Determination of antibacterial activity of polypeptides according to GB/T 39101-2020: Inhibition zone assays in the inhibition zone method evaluate the bacteriostatic activity of test substances. The strain used is Escherichia coli (E. coli) in an ampicillin solution having a concentration of 1.5 mg/mL, using the punching method instead of the “Oxford cup” method to control the sampling areas.

The nature of data set [2]: Inclusion rate of C-β-CD for cinnamaldehyde (UV absorbance at 287 nm). It counts as physicochemical. The settings on record: saturated aqueous solution method, 45° C. 4 h, freeze-dried. Here is the method: 0.656 g the cationic β-cyclodextrin (C-β-CD) prepared in Example 1 was weighed and added with 10 mL distilled water until completely dissolution. An anhydrous ethanol solution containing 0.066 g cinnamaldehyde was added slowly. The mixture was magnetically stirred in a water bath at 45° C. for 4 h. After completion, the mixture was filtered with a 0.45 μm microporous membrane. The resulting solution was freeze-dried for 24 h to afford a cinnamaldehyde/C-β-CD inclusion complex.
10 mg analytically pure cinnamaldehyde was weighed and dissolved in anhydrous ethanol, and the volume was adjusted to 10 mL to prepare a 1000 mg/L stock solution. A proper amount of the stock solution was taken and diluted with anhydrous ethanol into a series of standard solutions at a concentration of 2, 4, 6, 8, and 10 mg/L. In the optimal absorption wavelength, the absorbance A of the above series of standard solutions was determined. […]
0.01 g of the C-β-CD inclusion complex of cinnamaldehyde was weighed and added into a 25 mL volumetric flask, added with anhydrous ethanol to dilute to the mark, and sonicated for 30 min. […] The absorbance A of the solution was determined at 287 nm and taken into the regression equation to calculate the cinnamaldehyde content in the inclusion complex (see the previous example for the conversion formula).

Data set [3] can be described thus: Inclusion rate of C-β-CD for thymol (UV absorbance at 278 nm). It counts as physicochemical. Conditions: thymol/C-β-CD inclusion complex, 40° C. 2 h, freeze-dried. Here is the method:
0.656 g of the cationic β-cyclodextrin (C-β-CD) prepared in Example 1 was weighed and added with 10 mL distilled water until completely dissolution. An anhydrous ethanol solution containing 0.075 g thymol (2 mL in total) was added. The mixture was magnetically stirred in a water bath at 40° C. for 2 h. After completion, the mixture was filtered with a 0.45 μm microporous membrane. The resulting solution was freeze-dried for 24 h to afford a thymol/C-β-CD inclusion complex.
15 mg of analytically pure thymol was weighed and dissolved in anhydrous ethanol, and the volume was adjusted to 10 mL to prepare a 1500 mg/L stock solution. A proper amount of the stock solution was taken and diluted with anhydrous ethanol into a series of standard solutions at a concentration of 50, 40, 30, 20, and 10 mg/L. In the optimal absorption wavelength, an absorbance A of the above series of standard solutions was determined. A standard curve was drawn with a thymol concentration (mg/L) as an abscissa and A as an ordinate.
0.1 g of the thymol/C-β-CD inclusion complex as prepared above was weighed and added into a 25 mL volumetric flask, added with anhydrous ethanol to dilute to the mark, and sonicated for 30 min. […] The absorbance A of the solution at 278 nm was determined, and taken into the regression equation to calculate the thymol content in the inclusion complex. […]

For `O=[N+]([O-])[O-].[Ag+]` [AgNO3, silver nitrate, reference compound], the bacteriostatic effect entry in data set [1] is on record as “weak bacteriostatic effect”.

For the compound cationic β-cyclodextrin [C-β-CD], in data set [1], the bacteriostatic effect result was “no bacteriostatic activity”. Further, the “inclusion rate for cinnamaldehyde” value in data set [2] was found to be 21.55%. In addition, the “inclusion rate for thymol” value in data set [3] came out at 63.55%.
